Legend:
[1] = target: T1, casein kinase 1 epsilon (CK1 epsilon) (Homo sapiens, UniProt P49674); experiment: Filter-plate assay of ATP-33P: inhibition of phosphorylation of casein by CK1 epsilon; type: biochemical; settings: casein substrate, 10 μM ATP, 2 hours at ambient temperature
T1 construct: Invitrogen Corporation (alternative)
Method: The capacity of the compounds of the invention to inhibit the phosphorylation of casein by casein kinase 1 epsilon and delta can be evaluated according to the procedure described in document US 2005/0131012.
Filter-Plate Assay of ATP-^33P for the Screening of CK1 Epsilon Inhibitors:
The effect of the compounds on inhibition of the phosphorylation of casein by the enzyme casein kinase 1 epsilon (CK1 epsilon) is measured using a casein assay with filtration of ATP-^33P in vitro.
Casein kinase 1 epsilon (0.58 mg/ml) is obtained via fermentation and purification processes carried out according to methods well known to those skilled in the art, or may also be obtained from Invitrogen Corporation™ (human CK1 epsilon).
The compounds are tested at five different concentrations so as to generate IC50 values, i.e. the concentration at which a compound is capable of inhibiting the enzymatic activity by 50%, or alternatively the % inhibition at a concentration of 10 micromolar.
“U”-bottomed Falcon plates are prepared by placing 5 μl of solutions of the compounds according to the invention at concentrations of 10, 1, 0.1, 0.01 or 0.001 μM in various wells. The solutions of the compounds according to the invention at these various concentrations are prepared by diluting in a test buffer (50 mM Tris, pH 7.5, […], 2 mM DTT and 1 mM EGTA) a stock solution in DMSO at a concentration of 10 mM. Next, 5 μl of dephosphorylated casein are added to a final concentration of 0.2 μg/μl, 20 μl of CK1 epsilon are added to a final concentration of 3 ng/μl, and 20 μl of ATP-^33P are added to a final concentration of 0.02 μCi/μl mixed with cold ATP (10 μM final—approximately 2×10^6 CPM per well). The final total test volume per well is equal to 50 μl.
The “U”-bottomed Falcon® test plate mentioned above is vortexed, and then incubated at ambient temperature for 2 hours. After 2 hours, the reaction is stopped by adding an ice-cold solution of 65 μl of cold ATP (2 mM) prepared in test buffer. 100 μl of the reaction mixture are then transferred from the “U”-bottomed Falcon®plate into Millipore MAPH filter plates, preimpregnated with 25 μl of ice-cold 100% TCA. […]
The plates are left to dry overnight at ambient temperature. […] The radiation emitted by each well is then measured for 2 minutes in a Packard® Topcount NXT scintillation counter, in which the values of CPM/well are measured.
The % inhibition of the capacity of the enzyme to phosphorylate the substrate (casein) is determined for each concentration of compound tested. These inhibition data expressed as percentages are used to calculate the IC50 value for each compound compared with the controls.
The kinetic studies determined the KM value for ATP as being 21 μM in this test system.

[2] = target: T2, casein kinase 1 delta (human CK1 delta PV3665) (Homo sapiens, UniProt P48730); experiment: FRET fluorescence test (Z'Lyte kinase assay kit), phosphorylation of peptide substrate SER/THR 11; type: biochemical; settings: peptide substrate 2 μM, ATP at 4 times the KM
T2 construct: purchased Invitrogen Corporation PV3665
Text: The capacity of the compounds of the invention to inhibit the phosphorylation of casein by casein kinase 1 epsilon and casein kinase 1 delta can be evaluated using a FRET (Fluorescence Resonance Energy Transfer) fluorescence test by means of the “Z′Lyte™ kinase assay kit” (reference PV3670; Invitrogen Corporation™) according to the supplier's instructions.
The casein kinases 1 used are obtained from Invitrogen Corporation (human CK1 epsilon PV3500 and human CK1 delta PV3665).
A peptide substrate, labelled at both ends with a fluorophore donor group (coumarin) and a fluorophore acceptor group (fluorescein) constituting a FRET system is phosphorylated in the presence of ATP by casein kinase 1 epsilon or delta in the presence of increasing concentrations of compounds of the invention.
The mixture is treated with a site-specific protease that specifically cleaves the peptide substrate so as to form two fluorescent fragments having a large fluorescence emission ratio.
The fluorescence observed is thus related to the capacity of the products of the invention to inhibit the phosphorylation of the peptide substrate by casein kinase 1 epsilon or casein kinase 1 delta. […]
The emitted fluorescence is measured at wavelengths of 445 and 520 nm (excitation at 400 nm).

T2 sequence (P48730 whole entry): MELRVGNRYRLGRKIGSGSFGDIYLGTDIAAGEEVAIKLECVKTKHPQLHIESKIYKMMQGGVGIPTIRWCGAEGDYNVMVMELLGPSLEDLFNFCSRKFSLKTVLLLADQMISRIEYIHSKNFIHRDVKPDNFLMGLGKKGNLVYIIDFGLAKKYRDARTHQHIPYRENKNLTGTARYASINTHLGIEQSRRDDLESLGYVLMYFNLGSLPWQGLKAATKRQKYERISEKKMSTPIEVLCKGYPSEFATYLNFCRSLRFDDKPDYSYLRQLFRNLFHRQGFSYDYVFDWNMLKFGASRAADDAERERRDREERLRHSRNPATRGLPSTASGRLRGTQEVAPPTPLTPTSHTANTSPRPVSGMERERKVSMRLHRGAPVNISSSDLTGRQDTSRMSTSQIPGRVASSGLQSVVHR
T1 sequence (P49674 whole entry): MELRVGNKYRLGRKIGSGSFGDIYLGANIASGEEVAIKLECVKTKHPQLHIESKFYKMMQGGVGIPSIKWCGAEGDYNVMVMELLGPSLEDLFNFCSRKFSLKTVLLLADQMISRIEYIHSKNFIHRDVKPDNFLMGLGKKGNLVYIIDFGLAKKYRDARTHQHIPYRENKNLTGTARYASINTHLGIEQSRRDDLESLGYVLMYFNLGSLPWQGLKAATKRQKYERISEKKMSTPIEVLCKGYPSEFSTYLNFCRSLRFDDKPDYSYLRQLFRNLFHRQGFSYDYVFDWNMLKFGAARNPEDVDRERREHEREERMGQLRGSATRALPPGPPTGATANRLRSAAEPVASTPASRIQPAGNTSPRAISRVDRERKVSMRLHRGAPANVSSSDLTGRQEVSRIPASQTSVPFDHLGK

For `OCCN1CCN(c2ccc3nc(-c4ccc(Cl)s4)c(-c4ccncc4)n3n2)CC1` [Compound 14, 2-{4-[2-(5-chlorothien-2-yl)-3-(pyridin-4-yl)imidazo[1,2-b]pyridazin-6-yl](piperazin-1-yl)}ethanol], the IC50 [1] was 19 nM and the IC50 [2] was 93 to 163 nM.

In the case of `Cc1ccc(-c2nc3ccc(N4CCNCC4)nn3c2-c2ccncc2)s1` [Compound 10, 2-(5-methylthien-2-yl)-6-(piperazin-1-yl)-3-(pyridin-4-yl)imidazo[1,2-b]pyridazine], the IC50 [1] is reported as 87 nM and the IC50 [2] is reported as 63 to 76 nM.
